Measurements as given in patent US20240401101A1, “A LIVE CELL ASSAY TO DETERMINE PERMEABILITY OF TEST MOLECULES TO AND/OR WITHIN THE PEPTIDOGLYCAN SCAFFOLD OF BACTERIA CELLS” (priority 2021, published 2024).

Experiments:
Format in all cases: cell-based, Mycobacterium smegmatis
[1] = test system: M. smegmatis mc^2 155; test: PAC-MAN competition with azide-modified test molecules; conditions: concentration dependent analysis, 2 h, then Fl-az; read-out: EC50 of apparent permeation
Experimental: Competition with test molecules. To a 96-well plate added 100 uL DBCO-modified M. smegmatis mc^2 155 cells pre well with 50 μM test molecules, in triplicate respectively. The plate was incubated in 37° C. for 2 h. The cells were spun down for 2 min at 3000 g. The supernatant was decanted, and 50 μM FAM-N3 was then added to each well, followed by incubation in 37° C. for 1 h. The cells were then spun down again, and the pellets were washed with PBST for 2 times and fixed with 4% formaldehyde for 15 mins. The samples were then analyzed by Attune™ NxT Acoustic Focusing Cytometer.
LLysN3 competition. To a 96-well plate added 100 uL DBCO-modified M. smegmatis mc^2 155 cells pre well with different concentration of L-Lys-N3 described in the main text, in triplicate respectively. The plate was incubated in 37° C. for 2 h. The cells were spun down for 2 min at 3000 g. […] The samples were then analyzed by Attune® NxT Acoustic Focusing Cytometer.
Next, we set out to benchmark the ability of the assay to report on the permeability of a set of test small molecules by performing a pilot screen with azide-conjugated compounds. […] Next, cells are treated with Fl-az to quantify the level of unreacted DBCO epitopes.^42 Finally, cells are analyzed by flow cytometry to measure total cellular fluorescence.

[2] = test system: M. smegmatis mc^2 155; test: Example IV: metabolic PG labeling of Msm with DBCO tags followed by azide fluorophore, flow cytometry
Experimental: General method for bacterial peptidoglycan modification. M. smegmatis strains was inoculated from the glycerol stock to the according media and grown for 24 hours until 0.5-0.6 OD, tetrapeptide probes were added to the media and the cells were grown overnight to achieve stationary phase. The cells were harvested the next day and spun down for 2 min at 3000 g, washed with phosphate buffered saline with tween80 (PBST, PBS with 0.05% tween 80) two times and resuspended in PBST to yield DBCO-modified M. smegmatis cells for further labeling and other experiments.
(§1) DBCOtetra compared with stereo control and single amino acid DBCO. M. smegmatis mc^2 155 was inoculated from stationary phase in 1:100 dilution to a fresh 7H9 media with ADC. 25 μM Dap-DBCO, DBCOtetra or DBCOtera(L) were added to the culture tubes respectively, and the cells were grown for 36-40 hours until stationary phase. The cells were harvested and spun down for 2 min at 3000 g, washed with PBST two times and resuspended in PBST. To a 96-well plate added 100 μL cells pre well with 50 μM FAM-N3 in triplicate. The plate was incubated in 37° C. for 1 h and spun down for 2 min at 3000 g. The supernatant was decanted, and the pellets were washed with PBST for 2 times and fixed with 4% formaldehyde for 15 mins. The samples were then analyzed by Attune™ NxT Acoustic Focusing Cytometer.
as §1, with “Confirm for click chemistry on PG.” for “DBCOtetra compared with stereo control and single amino acid DBCO.”, “μM” for “μM Dap-DBCO,”, “FL-tetra” for “DBCOtera(L)”, “uL” for “μL”, “FAM-N3 or 5-carboxy fluorescein accordingly” for “FAM-N3”
as §1, with “Different concentrations of DBCOtetra.” for “DBCOtetra compared with stereo control and single amino acid DBCO.”, “ADC. 5 μM, 10 μM or” for “ADC.”, “μM” for “μM Dap-DBCO,”, “DBCOtetra” for “DBCOtetra or DBCOtera(L)”, “1h” for “1 h”
Different concentration of FAM-N3 and different time. M. smegmatis mc^2 155 was inoculated from stationary phase in 1:100 dilution to a fresh 7H9 media with ADC. 25 μM DBCOtetra were added to the culture tubes, and the cells were grown for 36-40 hours until stationary phase. The cells were harvested and spun down for 2 min at 3000 g, washed with PBST two times and resuspended in PBST. To a 96-well plate added 100 μL cells pre well with different concentration of FAM-N3 described in the main text, 9 wells each. […] The samples were then analyzed by Attune™ NxT Acoustic Focusing Cytometer. […]

[3] = test system: Msm ldtΔ5 (PM2750 Δ5); test: TetD labeling of Ldt knock out strain; conditions: 25 μM TetD, 50 μM Fl-Az
Experimental: Ldt knock down strain. M. smegmatis mc^2 155 and PM2750 Δ5 were inoculated from the glycerol stock to the according media and grown for 24 hours until 0.5-0.6 OD, 25 μM DBCOtetra were added to the media, and the cells were grown overnight to achieve stationary phase. The cells were harvested and spinned down for 2 min at 3000 g, washed with PBST two times and resuspended in PBST. To a 96-well plate added 100 uL cells pre well with 50 μM FAM-N3 accordingly in triplicate. The plate was incubated in 37° C. for 1 h and spun down for 2 min at 3000 g. The supernatant was decanted, and the pellets were washed with PBST for 2 times and fixed with 4% formaldehyde for 15 mins. The samples were then analyzed by Attune™ NxT Acoustic Focusing Cytometer.

[4] = test system: M. smegmatis cells; test: Ethidium bromide and Nile red whole-cell accumulation assay; conditions: cells treated with vehicle or TetD (25 or 50 μM); both dyes
Experimental: Ethidium bromide and Nile red whole-cell accumulation assay. To a Costar 96-well half area black opaque flat bottom plate added 100 uL DBCO-modified M. smegmatis cells each well with 5 μM ethidium bromide and 10 μM Nile red in triplicates, respectively. The fluorescent intensity at different time points were taken by a Synergy H1 microplate reader for 90 min with 3 min intervals and continuously orbital shaking. Wavelengths ethidium bromide, excitation 530 nm, emission 590 nm; Nile red, excitation 540 nm, emission 630 nm.

With `[N-]=[N+]=NCCCC[C@H](N)C(=O)O` [Lys] the EC50 [1] was 100 µM.
In the case of `C[C@H](NC(=O)CCC(=O)N1Cc2ccccc2C#Cc2ccccc21)C(=O)N[C@H](CCC(=O)N[C@@H](CCCCN)C(=O)N[C@H](C)C(=O)O)C(N)=O` [TetD], the “PG labeling levels (fluorescence) above vehicle treated cells” value ([2]; Msm, metabolic label then Fl-az) is reported as ~85 fold, the “fluorescence levels of Msm” value ([2]; metabolic label and/or fluorophore as named) is reported as “concentration-dependent increase in cellular fluorescence” and the “decrease of fluorescence levels relative to the parental cells” value [3] is reported as ~7 fold. The “accumulation of the permeability probe (EtBr or Nile Red)” value [4] was “no significant change in the accumulation of the permeability probe”.
